The record followed here is patent publication EP4095134A1, “POLYCYCLIC COMPOUNDS FOR THE TREATMENT OF NEUROLOGICAL INDICATIONS” (UCL Business Ltd, priority 2021, dated 2022).

In the assay the target is T1, P2Y1 receptor (Homo sapiens, UniProt P47900).
T1 construct: expressed in transfected cells
T1 sequence (P47900 whole entry): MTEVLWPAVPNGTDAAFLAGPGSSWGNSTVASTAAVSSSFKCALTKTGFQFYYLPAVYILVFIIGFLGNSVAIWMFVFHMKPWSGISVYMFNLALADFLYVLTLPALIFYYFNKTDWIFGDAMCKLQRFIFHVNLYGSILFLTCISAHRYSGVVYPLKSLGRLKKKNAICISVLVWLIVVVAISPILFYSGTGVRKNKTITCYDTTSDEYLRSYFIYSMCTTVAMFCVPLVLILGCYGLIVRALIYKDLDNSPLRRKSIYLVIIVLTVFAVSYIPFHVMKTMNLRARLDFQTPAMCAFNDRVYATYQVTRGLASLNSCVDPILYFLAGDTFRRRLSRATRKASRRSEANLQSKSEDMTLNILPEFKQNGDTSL
Kind of assay: P2Y1 IP1 accumulation HTRF assay, antagonism of agonist MRS2365 in stably transfected cells. The assay is classed as cell-based. As to conditions: racemic; 5nM MRS2365; values rounded to nearest whole number; N >= 4. How it is done: IC50 values were determined using a cell based assay in stably transfected cells overexpressing the P2Y1 receptor. The assay system is a […] (HTRF) assay measuring accumulation of the intracellular messenger inositol monophosphate (IP1), generated intracellularly following activation of P2Y1. Activity of test compounds was generated by measuring antagonism of the increase in IP1 generated by addition of a selective P2Y1 agonist, MRS2365.
P2Y1 overexpressing cells were maintained in T175 flasks. The day before the assay, these cells were split and 20µl cell suspension transferred to each well of white 384-well assay plates at a cell density of 0.5x10^6 cells/mL. Plates were pulse centrifuged, then incubated overnight at 37°C / 5% CO2 prior to assay.
On day of assay, medium was removed from cells and replaced with stimulation buffer. Compounds were prepared in 100% DMSO for addition to cells using the Tecan D300e digital dispenser; compounds were prepared in cassette heads and added directly to wells in the required concentration range, to give a 10-point concentration response curve from 10µM with semi-log dilutions and a final DMSO concentration of 0.1%. Positive control antagonist curves with standard compounds were included on each plate. Plates were incubated with antagonists for 1 hour prior to addition of 5nM of the agonist MRS2365, dispensed using a Bravo liquid handler. Following agonist addition, plates were incubated for 60 minutes prior to assay. Both incubations were carried out at 37°C / 5% CO2.
For the assay, IP1 accumulation was quantified using the IPOne kit according to manufacturer's instructions. In short, a standard curve was prepared for IP 1 quantification, and cells lysed using kit lysis buffer. Assay reagents were added to the lysates, and incubated for 1 hour at room temperature without spinning or shaking. Plates were analysed on a BMG Pherastar plate reader, and IP1 signal generated in cells interpolated from the standard curve.
For all reported results, N is greater than or equal to 4. An individual N refers to one assay run with a single weighing of compound. A minimum of two assay runs were performed for each of two independent weighings of compound. Results (racemic)
In general terms: TR-FRET usually uses a lanthanide donor and a delayed reading to cut background.
What is called IC50 is the concentration that inhibits the measured activity by half. The low end stands for higher potency, the high end for lower potency. Take `COc1ccc(NC(=O)Nc2cccnc2Oc2ccccc2C2(C(F)(F)F)CCO2)cc1F` (racemic) [S55, 1-(3-fluoro-4-methoxyphenyl)-3-(2-(2-(2-(trifluoromethyl)oxetan-2-yl)phenoxy)pyridin-3-yl)urea]: the half-inhibitory concentration (IC50) was determined as 560 nM. With `Cc1ccc(NC(=O)Nc2ccc(C#N)cc2F)c(Oc2ccc(F)cc2C2(C(F)(F)F)CCO2)n1` (racemic) [S56, 1-(4-cyano-2-fluorophenyl)-3-(2-(4-fluoro-2-(2-(trifluoromethyl)oxetan-2-yl)phenoxy)-6-methylpyridin-3-yl)urea] the figure was 587 nM; with `COc1ccc(F)c(NC(=O)Nc2cccnc2Oc2ccc(F)cc2C2(C(F)(F)F)CCO2)c1` (racemic) [S57, 1-(2-(4-fluoro-2-(2-(trifluoromethyl)oxetan-2-yl)phenoxy)pyridin-3-yl)-3-(2-fluoro-5-methoxyphenyl)urea], 589 nM. To `Cc1ncc(NC(=O)Nc2ccc(Cl)cc2F)c(Oc2ccccc2C2(C(F)(F)F)CCO2)n1` (racemic) [S58] belongs 639 nM; to `Cc1ncc(NC(=O)Nc2ccc(OC(F)(F)F)cc2)c(Oc2ccccc2C2(C(F)(F)F)CCO2)n1` (racemic) [S59, 1-(2-methyl-4-(2-(2-(trifluoromethyl)oxetan-2-yl)phenoxy)pyrimidin-5-yl)-3-(4-(trifluoromethoxy)phenyl)urea], 644 nM.

In turn, `O=C(Nc1ccccc1)Nc1cccnc1Oc1ccccc1C1(C(F)(F)F)CCO1` (racemic) [S60, 1-phenyl-3-(2-(2-(2-(trifluoromethyl)oxetan-2-yl)phenoxy)pyridin-3-yl)urea] came in with an IC50 of 735 nM. To `O=C(Nc1cc2c(cc1F)OCO2)Nc1cccnc1Oc1ccccc1C1(C(F)(F)F)CCO1` (racemic) [S61, 1-(6-fluorobenzo[d][1,3]dioxol-5-yl)-3-(2-(2-(2-(trifluoromethyl)oxetan-2-yl)phenoxy)pyridin-3-yl)urea] belongs 768 nM; to `O=C(Nc1ccc(CN2CC(F)(F)C2)cc1)Nc1cccnc1Oc1ccccc1C1(C(F)(F)F)CCO1` (racemic) [S62, 1-(4-((3,3-difluoroazetidin-1-yl)methyl)phenyl)-3-(2-(2-(2-(trifluoromethyl)oxetan-2-yl)phenoxy)pyridin-3-yl)urea], 807 nM. With `Cc1ccc(NC(=O)NC2CC3(CCC3)C2)c(Oc2ccc(F)cc2C2(C(F)(F)F)CCO2)n1` (racemic) [S63, 1-(2-(4-fluoro-2-(2-(trifluoromethyl)oxetan-2-yl)phenoxy)-6-methylpyridin-3-yl)-3-(spiro[3.3]heptan-2-yl)urea] the figure was 844 nM. With `Cc1ncc(NC(=O)Nc2ccc(Cl)c(F)c2)c(Oc2ccccc2C2(C(F)(F)F)CCO2)n1` (racemic) [S64, 1-(4-chloro-3-fluorophenyl)-3-(2-methyl-4-(2-(2-(trifluoromethyl)oxetan-2-yl)phenoxy)pyrimidin-5-yl)urea] the figure was 926 nM; with `O=C(Nc1ccc(F)cc1F)Nc1cccnc1Oc1ccccc1C1(C(F)(F)F)CCO1` (racemic) [S65, 1-(2,4-difluorophenyl)-3-(2-(2-(2-(trifluoromethyl)oxetan-2-yl)phenoxy)pyridin-3-yl)urea], 983 nM; with `Cc1ccc(NC(=O)Nc2ccc(C#N)cc2)c(Oc2ccc(F)cc2C2(C(F)(F)F)CCO2)n1` (racemic) [S66, 1-(4-cyanophenyl)-3-(2-(4-fluoro-2-(2-(trifluoromethyl)oxetan-2-yl)phenoxy)-6-methylpyridin-3-yl)urea], 1020 nM. With `COc1cc(NC(=O)Nc2ccc(C)nc2Oc2ccccc2C2(C(F)(F)F)CCO2)ccc1F` (racemic) [S67, 1-(4-fluoro-3-methoxyphenyl)-3-(6-methyl-2-(2-(2-(trifluoromethyl)oxetan-2-yl)phenoxy)pyridin-3-yl)urea], the IC50 amounted to 1060 nM. To `COc1ncc(NC(=O)Nc2cccnc2Oc2ccc(F)cc2C2(C(F)(F)F)CCO2)cc1F` (racemic) [S68, 1-(2-(4-fluoro-2-(2-(trifluoromethyl)oxetan-2-yl)phenoxy)pyridin-3-yl)-3-(5-fluoro-6-methoxypyridin-3-yl)urea] belongs 1330 nM; to `Cc1ncc(NC(=O)Nc2ccc(Cl)cc2)c(Oc2ccccc2C2(C(F)(F)F)CCO2)n1` (racemic) [S69, 1-(4-chlorophenyl)-3-(2-methyl-4-(2-(2-(trifluoromethyl)oxetan-2-yl)phenoxy)pyrimidin-5-yl)urea], 1410 nM. In turn, `O=C(Nc1ccc2c(c1)OCO2)Nc1cccnc1Oc1ccccc1C1(C(F)(F)F)CCO1` (racemic) [S70, 1-(benzo[d][1,3]dioxol-5-yl)-3-(2-(2-(2-(trifluoromethyl)oxetan-2-yl)phenoxy)pyridin-3-yl)urea] returned an IC50 of 1450 nM. With `O=C(Nc1ccc(C(F)(F)F)nc1)Nc1cccnc1Oc1ccccc1C1(C(F)(F)F)CCO1` (racemic) [S71, 1-(2-(2-(2-(trifluoromethyl)oxetan-2-yl)phenoxy)pyridin-3-yl)-3-(6-(trifluoromethyl)pyridin-3-yl)urea] the figure was 1480 nM. With `N#Cc1ccc(NC(=O)Nc2cccnc2Oc2ccccc2C2(C(F)(F)F)CCO2)c(F)c1` (racemic) [S72, 1-(4-cyano-2-fluorophenyl)-3-(2-(2-(2-(trifluoromethyl)oxetan-2-yl)phenoxy)pyridin-3-yl)urea] the figure was 1490 nM; with `FC(F)(F)c1nnc(Nc2cccnc2Oc2ccccc2C2(C(F)(F)F)CCO2)s1` (racemic) [S73], 1690 nM; with `O=C(Nc1cccnc1Oc1ccccc1C1(C(F)(F)F)CCO1)NC1CC2(CC2)C1` (racemic) [S74], 2140 nM. With `COc1ccc(NC(=O)Nc2ccc(C)nc2Oc2ccc(F)cc2C2(C(F)(F)F)CCO2)cn1` (racemic) [S75, 1-(2-(4-fluoro-2-(2-(trifluoromethyl)oxetan-2-yl)phenoxy)-6-methylpyridin-3-yl)-3-(6-methoxypyridin-3-yl)urea] the figure was 2650 nM. `Cc1ccc(Nc2nnc(C(F)F)s2)c(Oc2ccc(F)cc2C2(C(F)(F)F)CCO2)n1` (racemic) [S76] gave a concentration for half-maximal inhibition (IC50) of 3050 nM.

Take `COc1cc(NC(=O)Nc2ccc(C)nc2Oc2ccc(F)cc2C2(C(F)(F)F)CCO2)ccn1` (racemic) [S77, 1-(2-(4-fluoro-2-(2-(trifluoromethyl)oxetan-2-yl)phenoxy)-6-methylpyridin-3-yl)-3-(2-methoxypyridin-4-yl)urea]: the IC50 turned out to be 3140 nM. To `Cn1c(C(F)(F)F)nc2ccc(NC(=O)Nc3cccnc3Oc3ccccc3C3(C(F)(F)F)CCO3)cc21` (racemic) [S78, 1-(1-methyl-2-(trifluoromethyl)-1H-benzo[d]imidazol-6-yl)-3-(2-(2-(2-(trifluoromethyl)oxetan-2-yl)phenoxy)pyridin-3-yl)urea] belongs 3160 nM. For the molecule `N#Cc1ccc(NC(=O)Nc2cccnc2Oc2ccccc2C2(C(F)(F)F)CCO2)cc1` (racemic) [S79, 1-(4-cyanophenyl)-3-(2-(2-(2-(trifluoromethyl)oxetan-2-yl)phenoxy)pyridin-3-yl)urea], the IC50 stood at 3170 nM.

`O=C(Nc1ccccc1)Nc1cccnc1Oc1ccccc1C1(C(F)F)CCO1` (racemic) [S80] yielded an IC50 of 3280 nM. With `Cc1ncc(NC(=O)Nc2ccc(OC3CC(F)(F)C3)cc2)c(Oc2ccccc2C2(C(F)(F)F)CCO2)n1` (racemic) [S81, 1-(4-(3,3-difluorocyclobutoxy)phenyl)-3-(2-methyl-4-(2-(2-(trifluoromethyl)oxetan-2-yl)phenoxy)pyrimidin-5-yl)urea] the figure was 3530 nM. With `FC(F)c1nnc(Nc2cccnc2Oc2ccccc2C2(C(F)(F)F)CCO2)s1` (racemic) [S82] the figure was 4530 nM. On to `CN1C(=O)CC1(c1ccccc1Oc1ncccc1NC(=O)Nc1ccc(OC(F)(F)F)cc1)C(F)F` (racemic) [S83], for which the IC50 was found to be 4710 nM. To `O=C(Nc1nc2ccccc2[nH]1)Nc1cccnc1Oc1ccccc1C1(C(F)(F)F)CCO1` (racemic) [S84, 1-(1H-benzo[d]imidazol-2-yl)-3-(2-(2-(2-(trifluoromethyl)oxetan-2-yl)phenoxy)pyridin-3-yl)urea] belongs 4940 nM. Regarding `Cn1c(C(F)F)nc2ccc(NC(=O)Nc3cccnc3Oc3ccccc3C3(C(F)(F)F)CCO3)cc21` (racemic) [S85, 1-(2-(difluoromethyl)-1-methyl-1H-benzo[d]imidazol-6-yl)-3-(2-(2-(2-(trifluoromethyl)oxetan-2-yl)phenoxy)pyridin-3-yl)urea], the IC50 turned out to be 5580 nM.

`Cc1ccc(NC(=O)NC2CC3(C2)CC(F)(F)C3)c(Oc2ccc(F)cc2C2(C(F)(F)F)CCO2)n1` (racemic) [S86, 1-(6,6-difluorospiro[3.3]heptan-2-yl)-3-(2-(4-fluoro-2-(2-(trifluoromethyl)oxetan-2-yl)phenoxy)-6-methylpyridin-3-yl)urea]: the 50% inhibitory concentration (IC50) was 6050 nM.

For the molecule `O=C(Nc1ccc(OC(F)(F)F)cc1)Nc1cccnc1Oc1ccccc1C1COC1` (racemic) [S87], the IC50 was 4590 nM.
